In US9636377B2, “Compositions and methods for the treatment of retinal degeneration” (UNIVERSITE DE STRASBOURG, priority 2012, dated 2017):
One block for each molecule: values may come before it. *: point of attachment. Cbz = O=C(OCc1ccccc1)*; CH2F = FC*

Experiments:
[1] = tested on: Bbs12 depleted retinal explants (photoreceptor apoptosis, ONL); assay: TUNEL assay, apoptotic rate of photoreceptors in shRNA-treated retinal explants; assay type: cell-based, mouse; conditions: for apoptotic rate (proportion of apoptotic photoreceptor nucleus): shBbs12 explants, single treatments 2 mM VPA, 25 μM GBZ, 10 μM INH, 33% without treatment
Experimental: (§1) Wild-type animals were on a C57BL/6 background. The retinal explant culture procedure was carried out as previously described (Reidel et al., 2006). Briefly, 15-day-old mice were sacrificed by decapitation and eyes were removed and incubated in trypsin (catalog #25200-072, Gibco, Invitrogen, Paris, France) for 10 min at 37° C. Digestion was stopped by transferring eyes in DMEM+10% fetal bovine serum (catalog #31885-023 and 10500-064, Gibco) and incubation for 10 min at 4° C. Eyes were dissected in Ame's medium (catalog#15230-097, Gibco) supplemented with 6.5 g/L glucose. First, the sclera was carefully removed, leaving the retinal pigmented epithelium (RPE) attached to the eyeball. Incisions were made at the edge of the cornea to remove the cornea, lens and hyaloid body. Then four radial incisions were made in the retina to obtain a cross shape. Retinas were transferred on a nitrocellulose culture membrane (catalog # PICMORG50, Millipore, Molsheim, France) with RPE side down and cultivated in Neurobasal A medium (catalog #108888-022, Gibco) supplemented with B27 supplement (catalog #17504-044, Gibco), L-glutamine (catalog #35050-061, Gibco) and penicillin/streptomycin (catalog #15240; Gibco). Explants were maintained at 37° C. humidified 5% CO2. Specific gene silencing using lentiviruses carrying shRNA sequences for Bbs12, Perk, Hri or Rhodopsin (Santa Cruz Biotechnology, Tebu Bio, Yvelines, France) were performed by adding 20 μl of viral suspension (1×10^5 infectious units) in the culture medium overnight before whole medium change. The infected explants were then cultured for 3 days with a half medium change on a daily basis. Explants were not maintained longer in culture to avoid unspecific apoptosis in the different retinal layers. […] Drugs were added simultaneously with viral infection to the culture medium.
For immunofluorescence experiments and TUNEL assay retinal explants were fixed directly on membranes with Formalin 10% for 1 hour at 4° C. Sucrose impregnation was then performed using 10%, 20% and 30% sucrose baths, 20 min each. Explants were transferred to OCT (catalog #4583, Tissue-Tek, Sakura, Villeneuve d′Ascq, France) in mold and frozen in liquid nitrogen. 8 μm thin cryosections were mounted on StarFrost slides (catalog # VS1117, Waldemar Knittel Glasbearbeitungs, Braunschweig, Germany).
Sections or cells were washed with PBS 1× and shortly fixated with Formalin 10% solution for 5 minutes and washed three times with PBS 1×. […] The prevalence of apoptotic nuclei was expressed as the ratio of TUNEL-positive nuclei and DAPI-stained nuclei in three different areas of the ONL per experiment. […]

[2] = tested on: Bip, Chop10 and Caspase12 mRNA; assay: mRNA expression of ER stress genes in retinal explants (quantitative PCR); assay type: cell-based, mouse
Experimental: as §1
Total RNA was extracted with Trizol (catalog #15596-018, Invitrogen). […] was DNAse treated using TURBO DNA-free Kit (catalog # AM1907, Applied Biosystems, Villebon-sur-Yvette, France) and then reverse transcribed using the iScript cDNA synthesis kit (catalog #170-8891, BioRad, Marne-la-coquette, France). Primers (listed in supplementary methods) were purchased from Qiagen, Courtaboeuf, France. Quantitative PCR were performed using SYBR Green PCR Mix (catalog #4367659, Applied Biosystems) on a BioRad CFX96 system. mRNA expressions were expressed as relative to Gapdh RNA content, using BioRad CFX manager software. For endoplasmic reticulum stress arrays, Custom TaqMan Array 96 was purchased for Applied Biosystems; all tested genes are listed in supplementary methods.

Bbs12−/− mouse retina [3] = assay: Scotopic electroretinogram of treated Bbs12−/− mice; assay type: in vivo; conditions: 4 weeks of age; for scotopic ERG recording: systemic VPA 5 mg/mL, systemic GBZ 50 μM, or GIV (eye drops GBZ 7.5 μM + INH 500 μM, systemic VPA)
Experimental: (§2) The Bbs12^−/− mice were generated as previously described. Bbs12^−/− mice were obtained by crossing heterozygote animals. Mice were housed in humidity and temperature controlled rooms on a 12-hour light/12-hour dark cycle with food ad libitum and water. For anti-apoptotic treatments, animals were treated with eye drops from 2 to 4 weeks of age once a day; the eye drops contain GBZ 7.5 μM and Caspase Inhibitor 500 μM for the left eye and contain 5% DMSO for the right eye. […] Eye drop treatment was achieved from 2 to 4 weeks of age and systemic treatments were achieved from 3 to 4 weeks of age. At 4 weeks of age, electrophysiological analyses were performed and the retinas were harvested for molecular analysis.
Mice were dark adapted for 12 hours before recording. Those experiments were performed under dim red light. The mice were anesthetized with the same anesthesia mix described in the section above. The pupils were dilated with eye drops of atropine 0.3% (catalog # Atropine Alcon 0.3%, Alcon, Rueil-Malmaison, France). Animals were placed on a controlled heating pad and maintained at 37° C. during the procedure. The reference electrode was placed under the head skin and the background electrode was inserted in the tail of the animal. The measuring electrode was placed on the cornea, to optimize contact between the cornea and the gold electrode, and a drop of methylcellulose gel (catalog # Ocry-gel, TVM Laboratories, Lempdes, France) was added. Flashes were delivered though a Ganzfeld equipped with light-emitting diodes with maximum output of 318 cd/m^2 (Siem Biomédicale, Nimes, France). For the scotopic ERG, the flash duration varied from 3 to 5 ms with final flash output ranging from 0.001 to 1 cd*s/m^2. Responses were amplified, filtered (1-300-Hz band pass), and digitized (Visiosystem; Siem Biomédicale). The a and b waves were measured by using a 1-75-Hz band pass to filter oscillatory potentials.

Bbs12−/− mouse retina [4] = assay: Retinal histology (ONL thickness, cilia) of treated Bbs12−/− mice; assay type: in vivo; conditions: for ONL layer thickness: 4 weeks of age, 37 μm for untreated retinas
Experimental: The Bbs12^−/− mice were generated as previously described. Bbs12^−/− mice were obtained by crossing heterozygote animals. Mice were housed in humidity and temperature controlled rooms on a 12-hour light/12-hour dark cycle with food ad libitum and water. For anti-apoptotic treatments, animals were treated with eye drops from 2 to 4 weeks of age once a day; the eye drops contain GBZ 7.5 μM and Caspase Inhibitor 500 μM for the left eye and contain 5% DMSO for the right eye. […] Eye drop treatment was achieved from 2 to 4 weeks of age and systemic treatments were achieved from 3 to 4 weeks of age. At 4 weeks of age, electrophysiological analyses were performed and the retinas were harvested for molecular analysis. Sections or cells were washed with PBS 1× and shortly fixated with Formalin 10% solution for 5 minutes and washed three times with PBS 1×. The sections were then pre-incubated with Teng-T (10 mM TrisHCl (pH=7.6), 5 mM EDTA (catalog # E5768, Sigma-Aldrich), 150 mM NaCl, 0.25% gelatin (catalog # G9391, Sigma-Aldrich), 0.05% Tween-20)/10% normal goat serum (catalog #PCN5000, Gibco) for 30 min, followed by an overnight incubation with the primary antibody diluted in Teng-T/10% NGS at 4° C. Slides were then washed with PBS 1× and incubated with the indicated secondary antibody in Teng-T/10% NGS for 1 hour at room temperature. Slides were washed in PBS 1× and nuclear staining was performed with DAPI (catalog # D1306, Invitrogen). Slides were mounted with Immumount (catalog #9990402, ThermoFisher). TUNEL assays were performed using In Situ Cell Death Detection Kit (catalog #11684795910, Roche) according to suppliers' protocol. The prevalence of apoptotic nuclei was expressed as the ratio of TUNEL-positive nuclei and DAPI-stained nuclei in three different areas of the ONL per experiment. All results shown are representative of at least 3 separate experiments.

peIF2α, CHOP10 and BiP = assay: Western blot of UPR proteins in retinal explants; assay type: cell-based, mouse; conditions: shRNA-treated retinal explants
Experimental: as §1
Proteins were obtained by lysis in RIPA buffer (150 mM NaCl, 50 mM TrisHCl pH 8, 0.1% Tween20, catalog # P7653, T3253, 93773, Sigma-Aldrich) supplemented with Protease Inhibitors Complete Mini EDTA-free (catalog #11836 170001, Roche, Boullogne-Billancourt, France), 1 mM NaVO4 and 25 mM NaF (catalog # S6508 and S7920, Sigma-Aldrich). After retina dissociation using dounce homogenizer, samples were sonicated and protein concentration was determined using Bradford reagent (catalog #500-0006, BioRad). For Western blotting, 80 μg of whole protein extracts were loaded per lane and Ponceau S staining was used as loading control for signal quantification. Antibody binding was visualized using SuperSignal West Femto Maximum Sensitivity Substrate (catalog #34095, ThermoFisher) on a Versadoc apparitus, BioRad. Signal quantification was assed using QuantityOne software from BioRad.

[5] = tested on: eIF2α phosphorylation and BiP; assay: Western blot of phosphorylated eIF2α and BiP in retinas of treated Bbs12−/− mice; assay type: in vivo, mouse
Experimental: as §2, with “Bbs12^-/-” for “Bbs12^−/−”, “analysis. […] After retina dissociation using dounce homogenizer, samples were sonicated and protein concentration was determined using Bradford reagent (catalog #500-0006, BioRad). For Western blotting, 80 μg of whole protein extracts were loaded per lane and Ponceau S staining was used as loading control for signal quantification. […] Signal quantification was assed using QuantityOne software from BioRad.” for “analysis.”

Bbs1M390R/M390R mice = conditions: cited from earlier work
RP patients = RP patients treated for 2 or 4 months; cited from earlier work
rat retina = conditions: ischemia-reperfusion injury, systemic administration; cited from earlier work
[6] = control conditions (shCtl explants)

a wave amplitude, scotopic ERG (Bbs12−/− mouse retina [3]): significantly increased | b wave amplitude, scotopic ERG (Bbs12−/− mouse retina [3]): significantly increased | scotopic ERG recording (Bbs12−/− mouse retina [3]): clear amelioration
Molecule: N=C(N)N/N=C/c1c(Cl)cccc1Cl [GBZ, guanabenz]
apoptotic rate (proportion of apoptotic photoreceptor nucleus) [1]: 12% | Bip mRNA expression ([2]; after Bbs12 depletion): decreased | Caspase12 mRNA expression ([2]; after Bbs12 depletion): decreased | Chop10 mRNA expression ([2]; after Bbs12 depletion): decreased | protective effect on photoreceptors, overall in vivo (electrophysiological and histological analysis) (Bbs12−/− mouse retina [4]): efficient to reduce photoreceptor apoptosis | ONL layer thickness (Bbs12−/− mouse retina [4]): 45 μm | CHOP10 protein content (peIF2α, CHOP10 and BiP): increase | eIF2α phosphorylation (peIF2α), protein level (peIF2α, CHOP10 and BiP): maintained in a phosphorylated status | phosphorylated status of eIF2α [5]: increased

Molecule: C[C@H](CCC(=O)NCCS(=O)(=O)O)[C@H]1CC[C@H]2[C@@H]3[C@@H](O)C[C@@H]4C[C@H](O)CC[C@]4(C)[C@H]3CC[C@]12C [TUDCA, tauroursodeoxycholic acid]
retinal thickness (Bbs1M390R/M390R mice): induced retinal thickening

a wave amplitude, scotopic ERG (Bbs12−/− mouse retina [3]): significantly increased | b wave amplitude, scotopic ERG (Bbs12−/− mouse retina [3]): higher | scotopic ERG recording (Bbs12−/− mouse retina [3]): clear amelioration
Molecule: CCCC(CCC)C(=O)O [VPA, valproic acid]
apoptotic rate (proportion of apoptotic photoreceptor nucleus) [1]: 17% | apoptotic rate ([1]; shCtl explants, 2 mM VPA, TUNEL-positive nuclei/DAPI in ONL): 13% | Bip mRNA expression ([2]; after Bbs12 depletion): lower | Caspase12 mRNA expression ([2]; after Bbs12 depletion): lower | Chop10 mRNA expression ([2]; after Bbs12 depletion): lower | Bip mRNA expression [2, 6]: twofold increase | Caspase12 mRNA expression [2, 6]: not significantly changed | Chop10 mRNA expression [2, 6]: not significantly changed | visual field (RP patients): increase of visual field in 5 to 7 patients | BiP expression (rat retina): increased | caspase-12 activation (rat retina): reduced | protective effect on photoreceptors, overall in vivo (electrophysiological and histological analysis) (Bbs12−/− mouse retina [4]): efficient to reduce photoreceptor apoptosis | ONL layer thickness (Bbs12−/− mouse retina [4]): 44 μm | BiP protein content (peIF2α, CHOP10 and BiP): increased | CHOP10 protein content (peIF2α, CHOP10 and BiP): decreased | eIF2α phosphorylation (peIF2α), protein level (peIF2α, CHOP10 and BiP): decreased | BiP protein level [5]: increased

Molecule: Z-Ala-Thr-Ala-Asp(O-methyl)-fluoromethyl-ketone (Cbz-ATAD(OMe)-CH2F; SMILES COC(=O)C[C@H](NC(=O)[C@H](C)NC(=O)[C@@H](NC(=O)[C@H](C)NC(=O)OCc1ccccc1)[C@@H](C)O)C(=O)CF) [INH, Promokine]
apoptotic rate (proportion of apoptotic photoreceptor nucleus) [1]: 23% | CHOP10 protein content (peIF2α, CHOP10 and BiP): decrease | eIF2α phosphorylation (peIF2α), protein level (peIF2α, CHOP10 and BiP): decrease
